{"source": "ChEMBL document CHEMBL1131961", "about": "“Protein kinase C modulators bearing dicarba-CLOSO-dodecaborane as a hydrophobic pharmacophore” (Bioorg Med Chem Lett, 1999)", "key": {"[1]": {"molecular_target": "Protein kinase C delta type (Homo sapiens, UniProt Q05655)", "sequence (Q05655 whole entry)": "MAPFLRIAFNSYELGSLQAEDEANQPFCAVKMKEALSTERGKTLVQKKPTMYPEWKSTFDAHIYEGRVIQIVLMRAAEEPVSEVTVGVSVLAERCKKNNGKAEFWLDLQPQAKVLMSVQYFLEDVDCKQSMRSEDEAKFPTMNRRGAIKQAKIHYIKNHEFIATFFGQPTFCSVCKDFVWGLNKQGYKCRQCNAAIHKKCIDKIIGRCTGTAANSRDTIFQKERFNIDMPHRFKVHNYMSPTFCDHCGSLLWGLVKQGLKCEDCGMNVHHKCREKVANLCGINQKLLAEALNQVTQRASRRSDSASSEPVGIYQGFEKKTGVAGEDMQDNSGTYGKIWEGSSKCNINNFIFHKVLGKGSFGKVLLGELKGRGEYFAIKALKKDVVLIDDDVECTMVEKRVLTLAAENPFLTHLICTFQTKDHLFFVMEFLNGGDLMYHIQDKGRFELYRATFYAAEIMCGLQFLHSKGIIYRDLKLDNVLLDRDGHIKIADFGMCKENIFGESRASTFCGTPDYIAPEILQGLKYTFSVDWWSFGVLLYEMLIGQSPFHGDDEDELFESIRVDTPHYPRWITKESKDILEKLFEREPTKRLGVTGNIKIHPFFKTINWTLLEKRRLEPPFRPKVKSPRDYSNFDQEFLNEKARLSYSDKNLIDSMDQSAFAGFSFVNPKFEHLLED", "experiment": "Displacement of [3H]-PDBu from human recombinant Protein kinase C delta"}, "HL-60": {"tested_on": "HL-60", "experiment": "Inhibition of HL-60 monocyte cell proliferation", "type": "functional", "conditions": "Homo sapiens, read-out: ED50 (the source's name)"}}, "data": [{"smiles": "CCCCCCCCCCc1ccc2c(c1)N(C)[C@@H](C(C)C)C(=O)N[C@H](CO)C2", "values": [{"measurement": "Ki", "setting": "[1]", "value": 1.8, "unit": "nM"}, {"measurement": "EC50", "setting": "HL-60", "value": 5, "unit": "nM"}]}]}
